Test results taken from US4477443A, “Tylosin derivatives, their preparation and pharmaceutical compositions containing them” (Zaidan Hojin Biselbutsu Kagaku Kenkyu Kai (Microbial …, priority 1981, dated 1984).
Values after ≈ are worked out from the molar mass of the structure shown. Read-outs that look alike come from different tables or passages of the source.

What was measured:
Format in all cases: cell-based
[1] = system: Staph. epidermidis IID 886; test: antimicrobial activity (MIC), Table II; conditions: Staphylococcus epidermidis, IID886
Staph. aureus ATCC 6538P = test: antimicrobial activity (MIC), Table II; conditions: Staphylococcus aureus, ATCC6538P
Staph. aureus 226 = test: antimicrobial activity (MIC), Table II; conditions: Staphylococcus aureus
Staph. aureus KC-11 = test: antimicrobial activity (MIC), Table II; conditions: Staphylococcus aureus, KC11
B. cereus = test: antimicrobial activity (MIC), Table II; conditions: Bacillus cereus; B. cereus; read-out: MIC
B. subtilis ATCC 6633 = test: antimicrobial activity (MIC), Table II; conditions: Bacillus subtilis, ATCC6633; B. subtilis ATCC 6633; read-out: MIC
E. coli K-12 ML 1410 = test: antimicrobial activity (MIC), Table I; conditions: Escherichia coli, K12ML1410
B. subtilis NRRL B-558 = test: antimicrobial activity (MIC), Table I; conditions: Bacillus subtilis, NRRLB558; B. subtilis NRRL B-558; read-out: MIC
E. coli K-12 LA 290 R 55 = test: antimicrobial activity (MIC), Table I; conditions: Escherichia coli
E. coli K-12 = test: antimicrobial activity (MIC), Table I; conditions: Escherichia coli, K12; E. coli K-12; read-out: MIC
Staph. aureus 209 P = test: antimicrobial activity (MIC), Table I; conditions: Staphylococcus aureus; Staph. aureus 209 P; read-out: MIC
Sarcina lutea PCI 1001 = test: antimicrobial activity (MIC), Table I; conditions: Micrococcus luteus, PCI1001; Sarcina lutea PCI 1001; read-out: MIC
Kleb. pneumoniae PCI 602 = test: antimicrobial activity (MIC), Table I; conditions: Klebsiella pneumoniae, PCI602; Kleb. pneumoniae PCI 602; read-out: MIC
Sal. enteritidis 1891 = test: antimicrobial activity (MIC), Table I; conditions: Salmonella enterica; Sal. enteritidis 1891; read-out: MIC
Coryn. bovis 1810 = test: antimicrobial activity (MIC), Table I; conditions: Corynebacterium bovis; Coryn. bovis 1810; read-out: MIC
E. coli NIHJ = test: antimicrobial activity (MIC), Table I; conditions: Escherichia coli; E. coli NIHJ; read-out: MIC
Pro. vulgaris OX-19 = test: antimicrobial activity (MIC), Table I; conditions: Proteus vulgaris, OX19
E. coli K-12 R-5 = test: antimicrobial activity (MIC), Table I; conditions: Escherichia coli, K12R5; E. coli K-12 R-5; read-out: MIC
[2] = system: Shigella dysenteriae JS 11910; test: antimicrobial activity (MIC), Table I; conditions: JS11910
Staph. aureus MS 9861 = test: antimicrobial activity (MIC), Table I; conditions: Staphylococcus aureus, MS9861; Staph. aureus MS 9861; read-out: MIC
Staph. aureus 193 = test: antimicrobial activity (MIC), Table I; conditions: Staphylococcus aureus; Staph. aureus 193; read-out: MIC
[3] = Staph. aureus ATCC 6538P, read-out: MIC
[4] = Staph. aureus 226, read-out: MIC
[5] = Staph. aureus KC-11, read-out: MIC
[6] = E. coli K-12 ML 1410, read-out: MIC
[7] = Pro. vulgaris OX-19, read-out: MIC

Row | Structure (SMILES) | MIC [1] [µg/mL] | MIC (Staph. aureus ATCC 6538P; [3]) [µg/mL] | MIC (Staph. aureus 226; [4]) [µg/mL] | MIC (Staph. aureus KC-11; [5]) [µg/mL] | MIC (B. cereus) [µg/mL] | MIC (B. subtilis ATCC 6633) [µg/mL] | MIC (B. subtilis NRRL B-558) [µg/mL] | MIC (E. coli K-12 LA 290 R 55) [µg/mL] | MIC (E. coli K-12) [µg/mL] | MIC (Staph. aureus 209 P) [µg/mL] | MIC (Sarcina lutea PCI 1001) [µg/mL] | MIC (Kleb. pneumoniae PCI 602) [µg/mL] | MIC (Sal. enteritidis 1891) [µg/mL] | MIC (Coryn. bovis 1810) [µg/mL] | MIC (E. coli NIHJ) [µg/mL] | MIC (E. coli K-12 R-5) [µg/mL] | MIC [2] [µg/mL] | MIC (Staph. aureus MS 9861) [µg/mL] | MIC (Staph. aureus 193) [µg/mL] | other results
1 | CCC1OC(=O)CC(O)C(C)C(OC2OC(C)CC(N(C)C)C2O)C(CC=O)CC(C)C(=O)C=CC(C)=CC1CN(CC)CC(F)(F)F (stereo not drawn) [Example 74, 23,4'-Dideoxy-23-N-(2,2,2-trifluoroethyl)ethylaminomycaminosyl tylonolide] | 0.78 (≈ 1.13 µM) | 0.78 (≈ 1.13 µM) | 0.78 (≈ 1.13 µM) | 0.78 (≈ 1.13 µM) | 0.78 (≈ 1.13 µM) | 0.78 (≈ 1.13 µM) |  |  |  |  |  |  |  |  |  |  |  |  |  | 
2 | CCC1OC(=O)CC(O)C(C)C(OC2OC(C)C(O)C(N(C)C)C2O)C(CC=O)CC(C)C(=O)C=CC(C)=CC1CN(CC)CC (stereo not drawn) [Example 5, 23-deoxy-23-diethylamino mycaminosyl tylonolide] |  |  |  |  |  |  | 0.78 (≈ 1.19 µM) | 3.12 (≈ 4.78 µM) | 1.56 (≈ 2.39 µM) | 0.78 (≈ 1.19 µM) | < 0.2 | 1.56 (≈ 2.39 µM) | 3.12 (≈ 4.78 µM) | 0.78 (≈ 1.19 µM) | 1.56 (≈ 2.39 µM) | 1.56 (≈ 2.39 µM) | 1.56 (≈ 2.39 µM) | 12.5 (≈ 19.1 µM) | 0.78 (≈ 1.19 µM) | MIC (E. coli K-12 ML 1410): 3.12 µg/mL (≈ 4.78 µM); MIC (Pro. vulgaris OX-19): 1.56 µg/mL (≈ 2.39 µM)
3 | CCC1OC(=O)CC(O)C(C)C(OC2OC(C)CC(N(C)C)C2O)C(CC=O)CC(C)C(=O)C=CC(C)=CC1CN1CCCCCCC1 (stereo not drawn) [Example 19, 23,4'-dideoxy-23-heptamethyleneiminomycaminosyl tylonolide] |  |  |  |  |  |  | 0.39 (≈ 0.576 µM) | 0.39 (≈ 0.576 µM) | 0.78 (≈ 1.15 µM) | < 0.2 | < 0.2 | 0.2 (≈ 0.295 µM) | < 0.2 | < 0.2 | 0.39 (≈ 0.576 µM) | 0.78 (≈ 1.15 µM) | < 0.2 | 0.78 (≈ 1.15 µM) | 0.2 (≈ 0.295 µM) | MIC (E. coli K-12 ML 1410; [6]): 0.78 µg/mL (≈ 1.15 µM); MIC (Pro. vulgaris OX-19): 0.39 µg/mL (≈ 0.576 µM)
4 | CCC1OC(=O)CC(O)C(C)C(OC2OC(C)CC(N(C)C)C2O)C(CC=O)CC(C)C(=O)C=CC(C)=CC1CN(C)CCO (stereo not drawn) [Example 66, 23,4'-dideoxy-23-N-(2-hydroxyethyl)methylaminomycaminosyl tylonolide] | 0.78 (≈ 1.22 µM) | 0.78 (≈ 1.22 µM) | 1.56 (≈ 2.44 µM) | 1.56 (≈ 2.44 µM) | ≤ 0.2 | 1.56 (≈ 2.44 µM) |  |  |  |  |  |  |  |  |  |  |  |  |  | 
5 | CCC1OC(=O)CC(O)C(C)C(OC2OC(C)CC(N(C)C)C2O)C(CC=O)CC(C)C(=O)C=CC(C)=CC1COC(=O)CSc1ccccn1 (stereo not drawn) [Example 53, 23-O-(pyridine-2-thioyl)acetyl-4'-deoxymycaminosyl tylonolide] | ≤ 0.2 |  |  |  | ≤ 0.2 | 0.39 (≈ 0.532 µM) |  |  |  |  |  |  |  |  |  |  |  |  |  | MIC (Staph. aureus ATCC 6538P): 0.39 µg/mL (≈ 0.532 µM); MIC (Staph. aureus 226; 226): 0.39 µg/mL (≈ 0.532 µM); MIC (Staph. aureus KC-11): 0.39 µg/mL (≈ 0.532 µM)
6 | CCC1OC(=O)CC(O)C(C)C(OC2OC(C)CC(N(C)C)C2O)C(CC=O)CC(C)C(=O)C=CC(C)=CC1CN1CCCCCC1 (stereo not drawn) [Example 18, 23,4'-dideoxy-23-hexamethyleneiminomycaminosyl tylonolide] |  |  |  |  |  |  | < 0.2 | 0.78 (≈ 1.18 µM) | 0.78 (≈ 1.18 µM) | < 0.2 | < 0.2 | 0.39 (≈ 0.588 µM) | < 0.2 | < 0.2 | 0.39 (≈ 0.588 µM) | 0.78 (≈ 1.18 µM) | < 0.2 | 0.78 (≈ 1.18 µM) | < 0.2 | MIC (E. coli K-12 ML 1410; [6]): 0.78 µg/mL (≈ 1.18 µM); MIC (Pro. vulgaris OX-19; [7]): 0.78 µg/mL (≈ 1.18 µM)
7 | CCC1OC(=O)CC(O)C(C)C(OC2OC(C)CC(N(C)C)C2O)C(CC=O)CC(C)C(=O)C=CC(C)=CC1CN(CC)CCO (stereo not drawn) [Example 67, 23,4'-dideoxy-23-N-ethyl(2-hydroxyethyl)aminomycaminosyl tylonolide] | 0.78 (≈ 1.19 µM) | 0.78 (≈ 1.19 µM) | 0.78 (≈ 1.19 µM) | 0.78 (≈ 1.19 µM) | 0.39 (≈ 0.597 µM) | 0.78 (≈ 1.19 µM) |  |  |  |  |  |  |  |  |  |  |  |  |  | 
8 | CCC1OC(=O)CC(O)C(C)C(OC2OC(C)C(O)C(N(C)C)C2O)C(CC=O)CC(C)C(=O)C=CC(C)=CC1CN1CCCCC1 (stereo not drawn) [Example 13, 23-deoxy-23-piperidinomycaminosyl tylonolide] |  |  |  |  |  |  | 0.39 (≈ 0.587 µM) | 1.56 (≈ 2.35 µM) | 1.56 (≈ 2.35 µM) | 0.39 (≈ 0.587 µM) | < 0.2 | 0.39 (≈ 0.587 µM) | 0.78 (≈ 1.17 µM) | < 0.2 | 0.78 (≈ 1.17 µM) | 1.56 (≈ 2.35 µM) | < 0.2 | 0.78 (≈ 1.17 µM) | 0.39 (≈ 0.587 µM) | MIC (E. coli K-12 ML 1410): 3.12 µg/mL (≈ 4.69 µM); MIC (Pro. vulgaris OX-19; [7]): 1.56 µg/mL (≈ 2.35 µM)
9 | CCC1OC(=O)CC(O)C(C)C(OC2OC(C)CC(N(C)C)C2O)C(CC=O)CC(C)C(=O)C=CC(C)=CC1CNC1CC1 (stereo not drawn) [Example 96, 23,4'-dideoxy-23-cyclopropylaminomycaminosyl tylonolide] | 0.39 (≈ 0.628 µM) |  | 0.78 (≈ 1.26 µM) | 0.78 (≈ 1.26 µM) | 0.39 (≈ 0.628 µM) | 0.78 (≈ 1.26 µM) |  |  |  |  |  |  |  |  |  |  |  |  |  | MIC (Staph. aureus ATCC 6538P): 0.39 µg/mL (≈ 0.628 µM)
10 | CCC1OC(=O)CC(O)C(C)C(OC2OC(C)C(O)C(N(C)C)C2O)C(CC=O)CC(C)C(=O)C=CC(C)=CC1CN1CCC(C)CC1 (stereo not drawn) [Example 89, 23-deoxy-23-(4-methylpiperidino)mycaminosyl tylonolide] | 0.78 (≈ 1.15 µM) | 0.78 (≈ 1.15 µM) | 0.78 (≈ 1.15 µM) | 0.78 (≈ 1.15 µM) |  | 0.78 (≈ 1.15 µM) |  |  |  |  |  |  |  |  |  |  |  |  |  | 
11 | CCC1OC(=O)CC(O)C(C)C(OC2OC(C)C(O)C(N(C)C)C2O)C(CC=O)CC(C)C(=O)C=CC(C)=CC1CN1CCCCCCC1 (stereo not drawn) [Example 90, 23-deoxy-23-heptamethyleneiminomycaminosyl tylonolide] | 0.39 (≈ 0.563 µM) |  |  |  |  | 0.39 (≈ 0.563 µM) |  |  |  |  |  |  |  |  |  |  |  |  |  | MIC (Staph. aureus ATCC 6538P): 0.39 µg/mL (≈ 0.563 µM); MIC (Staph. aureus 226; 226): 0.39 µg/mL (≈ 0.563 µM); MIC (Staph. aureus KC-11): 0.39 µg/mL (≈ 0.563 µM)
12 | CCC1OC(=O)CC(O)C(C)C(OC2OC(C)C(O)C(N(C)C)C2O)C(CC=O)CC(C)C(=O)C=CC(C)=CC1CN1CCCC(C)C1 (stereo not drawn) [Example 88, 23-deoxy-23-(3-methylpiperidino)mycaminosyl tylonolide] | 0.39 (≈ 0.574 µM) | 0.78 (≈ 1.15 µM) | 0.78 (≈ 1.15 µM) | 0.78 (≈ 1.15 µM) |  | 0.78 (≈ 1.15 µM) |  |  |  |  |  |  |  |  |  |  |  |  |  | 
13 | CCC1OC(=O)CC(O)C(C)C(OC2OC(C)CC(N(C)C)C2O)C(CC=O)CC(C)C(=O)C=CC2(C)OC2C1CN(C)C (stereo not drawn) [Example 61, 23,4'-dideoxy-23-dimethylamino-12,13-epoxymycaminosyl tylonolide] | 0.78 (≈ 1.25 µM) | 0.78 (≈ 1.25 µM) | 1.56 (≈ 2.5 µM) | 0.78 (≈ 1.25 µM) | ≤ 0.2 | 0.78 (≈ 1.25 µM) |  |  |  |  |  |  |  |  |  |  |  |  |  | 
